# Measured values reported in PubChem BioAssay (NCI).
#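 Exposure lasted 48 hours, with cells grown in 96-well plates and compounds tested at five concentrations. At the GI50, growth is halved. The concentration for full growth arrest is given as TGI.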
# Tests used:
# Assay in all cases: NCI tumour cell line growth inhibition, 48 h
# CCRF-CEM leukemia = test system: CCRF-CEM leukemia
# OVCAR-5 ovarian = test system: OVCAR-5 ovarian
# COLO 205 colon = test system: COLO 205 colon
# MALME-3M melanoma = test system: MALME-3M melanoma
# NCI-H460 lung = test system: NCI-H460 lung
# HOP-92 NSCLC = test system: HOP-92 NSCLC
# RPMI-8226 leukemia = test system: RPMI-8226 leukemia
# HOP-62 NSCLC = test system: HOP-62 NSCLC
# MDA-MB-435 = test system: MDA-MB-435
# SR leukemia = test system: SR leukemia
# OVCAR-3 ovarian = test system: OVCAR-3 ovarian
# SK-OV-3 ovarian = test system: SK-OV-3 ovarian
# NCI-H226 lung = test system: NCI-H226 lung
# SF-268 CNS = test system: SF-268 CNS
# M14 melanoma = test system: M14 melanoma
# NCI-H522 lung = test system: NCI-H522 lung
# 786-0 renal = test system: 786-0 renal
# NCI/ADR-RES ovarian = test system: NCI/ADR-RES ovarian
# HL-60(TB) leukemia = test system: HL-60(TB) leukemia
# HCC-2998 colon = test system: HCC-2998 colon
# ACHN renal = test system: ACHN renal
# T-47D breast = test system: T-47D breast
# SK-MEL-28 melanoma = test system: SK-MEL-28 melanoma
# OVCAR-8 ovarian = test system: OVCAR-8 ovarian
# CAKI-1 renal = test system: CAKI-1 renal
# HT29 colon = test system: HT29 colon
# SNB-19 CNS = test system: SNB-19 CNS
# A549 NSCLC = test system: A549 NSCLC
# UACC-257 melanoma = test system: UACC-257 melanoma
# MOLT-4 leukemia = test system: MOLT-4 leukemia
# EKVX NSCLC = test system: EKVX NSCLC
# SF-539 CNS = test system: SF-539 CNS
# KM12 colon = test system: KM12 colon
# BT-549 breast = test system: BT-549 breast
# UACC-62 melanoma = test system: UACC-62 melanoma
# SK-MEL-5 melanoma = test system: SK-MEL-5 melanoma
# K-562 leukemia = test system: K-562 leukemia
# MDA-MB-468 breast = test system: MDA-MB-468 breast
# IGROV1 ovarian = test system: IGROV1 ovarian
# A498 renal = test system: A498 renal
# SN12C renal = test system: SN12C renal
# DU-145 prostate = test system: DU-145 prostate
# SF-295 CNS = test system: SF-295 CNS
# OVCAR-4 ovarian = test system: OVCAR-4 ovarian
# U251 CNS = test system: U251 CNS
# NCI-H23 lung = test system: NCI-H23 lung
# LOX IMVI melanoma = test system: LOX IMVI melanoma
# PC-3 prostate = test system: PC-3 prostate
# RXF 393 renal = test system: RXF 393 renal
# SW-620 colon = test system: SW-620 colon
# TK-10 renal = test system: TK-10 renal
# HCT-116 colon = test system: HCT-116 colon
# HCT-15 colon = test system: HCT-15 colon
# MCF7 breast = test system: MCF7 breast
# HS 578T breast = test system: HS 578T breast
structure (smiles),measurement,setting,value
O=C(Cc1c(-c2ccccc2[N+](=O)[O-])n(-c2ncnc3c2c(-c2ccccc2)c(-c2ccccc2)n3Cc2ccccc2)[nH]c1=O)c1ccc(Cl)c(Cl)c1,GI50,CCRF-CEM leukemia,18.6 µM
same,TGI,CCRF-CEM leukemia,> 100 µM
same,GI50,OVCAR-5 ovarian,16.4 µM
same,TGI,OVCAR-5 ovarian,83.8 µM
same,GI50,COLO 205 colon,11.5 µM
same,TGI,COLO 205 colon,24.7 µM
same,GI50,MALME-3M melanoma,12.4 µM
same,TGI,MALME-3M melanoma,48.9 µM
same,GI50,NCI-H460 lung,15.3 µM
same,TGI,NCI-H460 lung,> 100 µM
same,GI50,HOP-92 NSCLC,2.2 µM
same,TGI,HOP-92 NSCLC,23.7 µM
same,GI50,RPMI-8226 leukemia,3.38 µM
same,TGI,RPMI-8226 leukemia,29.7 µM
same,GI50,HOP-62 NSCLC,19.4 µM
same,TGI,HOP-62 NSCLC,85.5 µM
same,GI50,MDA-MB-435,19.5 µM
same,TGI,MDA-MB-435,62.2 µM
same,GI50,SR leukemia,12.4 µM
same,TGI,SR leukemia,45.3 µM
same,GI50,OVCAR-3 ovarian,12.8 µM
same,TGI,OVCAR-3 ovarian,> 100 µM
same,GI50,SK-OV-3 ovarian,14.2 µM
same,TGI,SK-OV-3 ovarian,55.4 µM
same,GI50,NCI-H226 lung,14.4 µM
same,TGI,NCI-H226 lung,61 µM
same,GI50,SF-268 CNS,29.4 µM
same,TGI,SF-268 CNS,> 100 µM
same,GI50,M14 melanoma,17.7 µM
same,TGI,M14 melanoma,58.1 µM
same,GI50,NCI-H522 lung,7.37 µM
same,TGI,NCI-H522 lung,72.8 µM
same,GI50,786-0 renal,26.8 µM
same,TGI,786-0 renal,> 100 µM
same,GI50,NCI/ADR-RES ovarian,19.7 µM
same,TGI,NCI/ADR-RES ovarian,> 100 µM
same,GI50,HL-60(TB) leukemia,5.24 µM
same,TGI,HL-60(TB) leukemia,58.7 µM
same,GI50,HCC-2998 colon,18.8 µM
same,TGI,HCC-2998 colon,> 100 µM
same,GI50,ACHN renal,15.2 µM
same,TGI,ACHN renal,> 100 µM
same,GI50,T-47D breast,2.76 µM
same,TGI,T-47D breast,> 100 µM
same,GI50,SK-MEL-28 melanoma,17.9 µM
same,TGI,SK-MEL-28 melanoma,> 100 µM
same,GI50,OVCAR-8 ovarian,20.1 µM
same,TGI,OVCAR-8 ovarian,> 100 µM
same,GI50,CAKI-1 renal,15.7 µM
same,TGI,CAKI-1 renal,93.9 µM
same,GI50,HT29 colon,10.1 µM
same,TGI,HT29 colon,> 100 µM
same,GI50,SNB-19 CNS,15.9 µM
same,TGI,SNB-19 CNS,> 100 µM
same,GI50,A549 NSCLC,19.7 µM
same,TGI,A549 NSCLC,> 100 µM
same,GI50,UACC-257 melanoma,9.08 µM
same,TGI,UACC-257 melanoma,66.1 µM
same,GI50,MOLT-4 leukemia,13.4 µM
same,TGI,MOLT-4 leukemia,61.6 µM
same,GI50,EKVX NSCLC,3.84 µM
same,TGI,EKVX NSCLC,> 100 µM
same,GI50,SF-539 CNS,21 µM
same,TGI,SF-539 CNS,83.9 µM
same,GI50,KM12 colon,15.1 µM
same,TGI,KM12 colon,> 100 µM
same,GI50,BT-549 breast,12.1 µM
same,TGI,BT-549 breast,53.8 µM
same,GI50,UACC-62 melanoma,5.17 µM
same,TGI,UACC-62 melanoma,20.9 µM
same,GI50,SK-MEL-5 melanoma,8.89 µM
same,TGI,SK-MEL-5 melanoma,21.6 µM
same,GI50,K-562 leukemia,6.68 µM
same,TGI,K-562 leukemia,> 100 µM
same,GI50,MDA-MB-468 breast,5.29 µM
same,TGI,MDA-MB-468 breast,33.5 µM
same,GI50,IGROV1 ovarian,12.1 µM
same,TGI,IGROV1 ovarian,> 100 µM
same,GI50,A498 renal,16.6 µM
same,TGI,A498 renal,78 µM
same,GI50,SN12C renal,15.1 µM
same,TGI,SN12C renal,> 100 µM
same,GI50,DU-145 prostate,33.9 µM
same,TGI,DU-145 prostate,> 100 µM
same,GI50,SF-295 CNS,8.34 µM
same,TGI,SF-295 CNS,> 100 µM
same,GI50,OVCAR-4 ovarian,13.2 µM
same,TGI,OVCAR-4 ovarian,> 100 µM
same,GI50,U251 CNS,13.7 µM
same,TGI,U251 CNS,> 100 µM
same,GI50,NCI-H23 lung,13.3 µM
same,TGI,NCI-H23 lung,72.5 µM
same,GI50,LOX IMVI melanoma,11.6 µM
same,TGI,LOX IMVI melanoma,26.9 µM
same,GI50,PC-3 prostate,5.45 µM
same,TGI,PC-3 prostate,> 100 µM
same,GI50,RXF 393 renal,22.5 µM
same,TGI,RXF 393 renal,> 100 µM
same,GI50,SW-620 colon,22.5 µM
same,TGI,SW-620 colon,> 100 µM
same,GI50,TK-10 renal,29.3 µM
same,TGI,TK-10 renal,> 100 µM
same,GI50,HCT-116 colon,5.9 µM
same,TGI,HCT-116 colon,80.9 µM
same,GI50,HCT-15 colon,15.8 µM
same,TGI,HCT-15 colon,57.5 µM
same,GI50,MCF7 breast,12.7 µM
same,TGI,MCF7 breast,47.7 µM
same,GI50,HS 578T breast,10.4 µM
same,TGI,HS 578T breast,74.6 µM
